From patent US20160024108A1, “USE OF DITHIINE-TETRACARBOXIMIDES FOR CONTROLLING BACTERIAL HARMFUL ORGANISMS IN USEFUL PLANTS” (BAYER CROPSCIENCE AKTIENGESELLSCHAFT, priority 2013, published 2016)

System: Pseudomonas syringae pv tomato
Experiment: Field trial against bacterial speck on tomato (Spain, 2011), artificial inoculation
Assay type: in vivo
Conditions: formulation containing 400 g per liter at 500 g ai/ha; in comparison with untreated plots and copper oxychloride standard
Experimental: A standard experiment was conducted in Spain in 2011 to evaluate the performance of BCS-BB98685 against bacterial speck of tomato caused by the bacteria Pseudomonas syringae pv tomato. Tomato plants were grown under plastic tunnel. Plots were artificially inoculated with a suspension of bacteria and treated with different experimental chemical formulations using a conventional sprayer. Four chemical sprays were applied within 7 days intervals. One artificial inoculation was performed one day after the third application. Disease assessment was done on 3 tomato plants per plot, 11 days after the last application. Infected leaflets were sorted in 3 classes according to a severity scale (Class 1=1 spot/leaflet; Class 2=2-5 spots/leaflet; Class 3=>5 spots/leaflet). Then results were expressed as severity index and transformed in efficacy values using the Abbott formula.

In the case of `Cn1c(=O)c2sc3c(=O)n(C)c(=O)c3sc2c1=O` [Compound I-1, 2,6-dimethyl-1H,5H-[1,4]dithiino[2,3-c:5,6-c′]dipyrrole-1,3,5,7(2H,6H)-tetrone], the “level of bacterial infection on tomatoes” value was “significantly reduce the level of bacterial infection on tomatoes”.
